Results as given in ChEMBL document CHEMBL1687808, “LmrS is a multidrug efflux pump of the major facilitator superfamily from Staphylococcus aureus” (2010).
In brackets after ≈: the same amount, converted by molar mass. Activity calls are given as the source filed them. The calls are words filed in the database; no cut-off is given here.

Columns and labels:
Escherichia coli [1] = assay: Antibacterial activity against Escherichia coli KAM32 harboring pSP72 by broth microdilution method; format: functional
Escherichia coli [2] = assay: Ratio of MIC for Escherichia coli KAM32 harboring cloned pSP72 lmrS to MIC for Escherichia coli KAM32 harboring pSP72; format: functional
Escherichia coli [3] = assay: Antibacterial activity against Escherichia coli KAM32 harboring Staphylococcus aureus cloned pSP72 lmrS by broth microdilution method; format: functional
Staphylococcus aureus [4] = assay: Inhibition of Staphylococcus aureus LmrS expressed in Escherichia coli KAM32 harboring pSP72 assessed as decrease of ethidium bromide accumulation at 100 uM by fluorescence spectrophotometer relative to control
Staphylococcus aureus [5] = assay: Inhibition of Staphylococcus aureus LmrS expressed in Escherichia coli KAM32 harboring pSP72 assessed as decrease of ethidium bromide efflux at 0.01 mM after 6 mins by fluorescence spectrophotometer relative to control
Escherichia coli [6] = assay: Inhibition of ethidium bromide accumulation in Escherichia coli KAM32 harboring pSP72 at 100 uM by fluorescence spectrophotometer; format: functional, organism-based
Escherichia coli [7] = assay: Antibacterial activity against Escherichia coli KAM32 harboring Staphylococcus aureus cloned pSP72 lmrS by broth microdilution method in presence of efflux pump inhibitor CCCP; format: functional

O=C(N[C@H](CO)[C@H](O)c1ccc([N+](=O)[O-])cc1)C(Cl)Cl [CHLORAMPHENICOL]
MIC (Escherichia coli [1]): 0.39 µg/mL (≈ 1.21 µM) | MIC ratio (Escherichia coli [2]): 8 | MIC (Escherichia coli [3]): 3.13 µg/mL (≈ 9.69 µM)

CC[n+]1c(-c2ccccc2)c2cc(N)ccc2c2ccc(N)cc21.[Br-] [HOMIDIUM BROMIDE]
MIC (Escherichia coli [1]): 7.8 µg/mL | MIC ratio (Escherichia coli [2]): 8 | inhibition (Staphylococcus aureus [4]): 30% | MIC (Escherichia coli [3]): 62.5 µg/mL

COc1c(N2CCNC(C)C2)c(F)cc2c(=O)c(C(=O)O)cn(C3CC3)c12 (stereo unspecified) [GATIFLOXACIN]
MIC (Escherichia coli [1]): 0.02 µg/mL (≈ 0.0533 µM) | MIC ratio (Escherichia coli [2]): 4.1 | MIC (Escherichia coli [3]): 0.08 µg/mL (≈ 0.213 µM)

NC[C@H]1O[C@H](O[C@H]2[C@H](O)[C@@H](O[C@H]3O[C@H](CO)[C@@H](O)[C@H](N)[C@H]3O)[C@H](N)C[C@@H]2N)[C@H](O)[C@@H](O)[C@@H]1O [KANAMYCIN]
MIC (Escherichia coli [1]): 15.6 µg/mL (≈ 32.3 µM) | MIC ratio (Escherichia coli [2]): 8 | MIC (Escherichia coli [3]): 125 µg/mL (≈ 258 µM)

COC(=O)[C@H]1[C@H]2C[C@@H]3c4[nH]c5cc(OC)ccc5c4CCN3C[C@H]2C[C@@H](OC(=O)c2cc(OC)c(OC)c(OC)c2)[C@@H]1OC [RESERPINE]
MIC (Escherichia coli [1]): 62 µg/mL (≈ 102 µM)

CS(=O)(=O)c1ccc([C@@H](O)[C@@H](CF)NC(=O)C(Cl)Cl)cc1 [FLORFENICOL]
MIC (Escherichia coli [1]): 0.39 µg/mL (≈ 1.09 µM) | MIC ratio (Escherichia coli [2]): 8 | MIC (Escherichia coli [3]): 3.13 µg/mL (≈ 8.74 µM)

Cetyltrimethylammonium bromide
MIC (Escherichia coli [1]): 3.9 µg/mL | MIC (Escherichia coli [3]): 7.8 µg/mL

COc1cc(Cc2cnc(N)nc2N)cc(OC)c1OC [TRIMETHOPRIM]
MIC (Escherichia coli [1]): 0.02 µg/mL (≈ 0.0689 µM) | MIC ratio (Escherichia coli [2]): 8.2 | MIC (Escherichia coli [3]): 0.16 µg/mL (≈ 0.551 µM)

CC[C@H]1OC(=O)[C@H](C)[C@@H](O[C@H]2C[C@@](C)(OC)[C@@H](O)[C@H](C)O2)[C@H](C)[C@@H](O[C@@H]2O[C@H](C)C[C@H](N(C)C)[C@H]2O)[C@](C)(O)C[C@@H](C)C(=O)[C@H](C)[C@@H](O)[C@]1(C)O [ERYTHROMYCIN]
MIC (Escherichia coli [1]): 1.9 µg/mL (≈ 2.59 µM) | MIC ratio (Escherichia coli [2]): 8.2 | MIC (Escherichia coli [3]): 15.6 µg/mL (≈ 21.3 µM)

CN[C@@H]1[C@H](O[C@H]2[C@H](O[C@H]3[C@H](O)[C@@H](O)[C@H](N=C(N)N)[C@@H](O)[C@@H]3N=C(N)N)O[C@@H](C)[C@]2(O)C=O)O[C@@H](CO)[C@H](O)[C@H]1O [STREPTOMYCIN]
MIC (Escherichia coli [1]): 0.78 µg/mL (≈ 1.34 µM) | MIC ratio (Escherichia coli [2]): 8 | MIC (Escherichia coli [3]): 6.25 µg/mL (≈ 10.7 µM)

CO[C@H]1/C=C/O[C@@]2(C)Oc3c(C)c(O)c4c(O)c(c(/C=N/N5CCN(C)CC5)c(O)c4c3C2=O)NC(=O)/C(C)=C\C=C\[C@H](C)[C@H](O)[C@@H](C)[C@@H](O)[C@@H](C)[C@H](OC(C)=O)[C@@H]1C [RIFAMPIN]
MIC (Escherichia coli [1]): 1.9 µg/mL (≈ 2.31 µM) | MIC ratio (Escherichia coli [2]): 2.1 | MIC (Escherichia coli [3]): 3.9 µg/mL (≈ 4.74 µM)

N#CC(C#N)=NNc1cccc(Cl)c1 [CARBONYL CYANIDE M-CHLOROPHENYLHYDRAZONE]
inhibition (Staphylococcus aureus [5]): 40% | inhibition (Escherichia coli [6]): inactive | MIC (Escherichia coli [1]): 8 µg/mL (≈ 39.1 µM)

CCCCCCCCCCCCOS(=O)(=O)[O-].[Na+] [SODIUM LAURYL SULFATE]
MIC (Escherichia coli [1]): 31.2 µg/mL | MIC ratio (Escherichia coli [2]): 8 | MIC (Escherichia coli [3]): 250 µg/mL

[Cl-].c1ccc([P+](c2ccccc2)(c2ccccc2)c2ccccc2)cc1 [TETRAPHENYLPHOSPHONIUM CHLORIDE]
MIC (Escherichia coli [1]): 9.76 µg/mL | MIC ratio (Escherichia coli [2]): 16 | MIC (Escherichia coli [3]): 156 µg/mL

CCC[C@@H]1C[C@@H](C(=O)N[C@@H]([C@H]2O[C@H](SC)[C@H](O)[C@@H](O)[C@H]2O)[C@@H](C)O)N(C)C1 [LINCOMYCIN]
MIC (Escherichia coli [1]): 31.2 µg/mL (≈ 76.9 µM) | MIC ratio (Escherichia coli [2]): 4 | MIC (Escherichia coli [3]): 125 µg/mL (≈ 307 µM)

CC(=O)O[C@H]1C[C@@]2(C)[C@@H](C[C@@H](O)[C@H]3[C@@]4(C)CC[C@@H](O)[C@@H](C)[C@@H]4CC[C@@]32C)/C1=C(\CCC=C(C)C)C(=O)O [FUSIDIC ACID]
MIC (Escherichia coli [7]): 62.5 µg/mL | MIC (Escherichia coli [1]): 31.2 µg/mL (≈ 60.5 µM) | MIC ratio (Escherichia coli [2]): 8 | MIC (Escherichia coli [3]): 250 µg/mL (≈ 484 µM)

CN(C)[C@@H]1C(O)=C(C(N)=O)C(=O)[C@@]2(O)C(O)=C3C(=O)c4c(O)cccc4[C@@](C)(O)[C@H]3[C@H](O)[C@@H]12 [OXYTETRACYCLINE]
MIC (Escherichia coli [1]): 0.1 µg/mL (≈ 0.217 µM) | MIC ratio (Escherichia coli [2]): 4 | MIC (Escherichia coli [3]): 0.39 µg/mL (≈ 0.847 µM)

CC(=O)NC[C@H]1CN(c2ccc(N3CCOCC3)c(F)c2)C(=O)O1 [LINEZOLID]
MIC (Escherichia coli [1]): 1.95 µg/mL (≈ 5.78 µM) | MIC ratio (Escherichia coli [2]): 16 | MIC (Escherichia coli [3]): 31.2 µg/mL (≈ 92.6 µM)

COc1cc(NS(=O)(=O)c2ccc(N)cc2)nc(OC)n1 [SULFADIMETHOXINE]
MIC (Escherichia coli [1]): 4.88 µg/mL (≈ 15.7 µM) | MIC ratio (Escherichia coli [2]): 2 | MIC (Escherichia coli [3]): 9.76 µg/mL (≈ 31.4 µM)
